Measurements: US20040156869A1, “2-substituted quinazolin-4-ylamine analogues” (Neurogen Corporation, priority 2002, published 2004)
Read-outs that look alike come from different tables or passages of the source.

Biological target: human capsaicin receptor (VR1) (Homo sapiens, UniProt Q8NER1)
Assay: Capsaicin receptor binding assay ([3H]RTX competition, VR1-transfected HEK293 membranes)

Sequence of human capsaicin receptor (VR1) (Q8NER1 whole entry): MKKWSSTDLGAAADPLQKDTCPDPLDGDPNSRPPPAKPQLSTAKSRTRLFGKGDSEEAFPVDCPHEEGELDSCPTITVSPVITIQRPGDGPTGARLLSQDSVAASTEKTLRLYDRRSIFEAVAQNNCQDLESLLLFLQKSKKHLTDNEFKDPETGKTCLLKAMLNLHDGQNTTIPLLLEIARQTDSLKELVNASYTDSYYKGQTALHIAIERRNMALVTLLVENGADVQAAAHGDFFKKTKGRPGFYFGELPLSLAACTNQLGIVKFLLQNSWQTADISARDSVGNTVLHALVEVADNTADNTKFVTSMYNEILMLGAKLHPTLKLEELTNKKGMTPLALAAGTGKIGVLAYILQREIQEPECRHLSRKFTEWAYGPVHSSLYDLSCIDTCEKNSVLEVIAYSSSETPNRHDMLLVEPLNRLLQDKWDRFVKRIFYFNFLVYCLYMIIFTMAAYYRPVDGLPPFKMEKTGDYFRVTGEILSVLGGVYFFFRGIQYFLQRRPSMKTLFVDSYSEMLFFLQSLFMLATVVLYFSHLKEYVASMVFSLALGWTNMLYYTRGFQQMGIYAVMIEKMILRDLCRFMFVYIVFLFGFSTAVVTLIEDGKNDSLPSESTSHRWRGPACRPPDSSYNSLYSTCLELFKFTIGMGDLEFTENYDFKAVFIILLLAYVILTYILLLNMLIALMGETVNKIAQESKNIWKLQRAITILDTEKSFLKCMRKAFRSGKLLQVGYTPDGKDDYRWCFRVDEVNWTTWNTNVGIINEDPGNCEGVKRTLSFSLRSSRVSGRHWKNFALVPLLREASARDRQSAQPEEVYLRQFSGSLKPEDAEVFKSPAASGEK

Ki | Ki (Table III, [3H]RTX competition binding, capsaicin receptor) | Structure (SMILES)
< 1 µM | – | CC(c1ccccc1)N(C)Cc1nc(Nc2ccc(C(F)(F)F)nc2)c2ccc(-c3ncccc3C(F)(F)F)cc2n1 (stereo not shown) [Compound 348, [2-{[Methyl-(1-phenyl-ethyl)-amino]-methyl}-7-(3-trifluoromethyl-pyridin-2-yl)-quinazolin-4-yl]-(6-trifluoromethyl-pyridin-3-yl)-amine]
< 1 µM | – | CN(Cc1nc(Nc2ccc(C(F)(F)F)nc2)c2ccc(-c3ncccc3C(F)(F)F)cc2n1)C1CCc2ccccc21 (stereo not shown) [Compound 349, [2-[(Indan-1-yl-methyl-amino)-methyl]-7-(3-trifluoromethyl-pyridin-2-yl)-quinazolin-4-yl]-(6-trifluoromethyl-pyridin-3-yl)-amine]
< 1 µM | – | CC1c2ccccc2CCN1Cc1nc(Nc2ccc(C(F)(F)F)nc2)c2ccc(-c3ncccc3C(F)(F)F)cc2n1 (stereo not shown) [Compound 351, [2-(1-Methyl-3,4-dihydro-1H-isoquinolin-2-ylmethyl)-7-(3-trifluoromethyl-pyridin-2-yl)-quinazolin-4-yl]-(6-trifluoromethyl-pyridin-3-yl)-amine]
< 1 µM | – | FC(F)(F)c1ccc(Nc2nc(CN3CCc4ccccc4C3)nc3cc(-c4ncccc4C(F)(F)F)ccc23)cn1 [Compound 352, [2-(3,4-Dihydro-1H-isoquinolin-2-ylmethyl)-7-(3-trifluoromethyl-pyridin-2-yl)-quinazolin-4-yl]-(6-trifluoromethyl-pyridin-3-yl)-amine]
< 1 µM | – | Cc1ccccc1CN(C)Cc1nc(Nc2ccc(C(F)(F)F)nc2)c2ccc(-c3ncccc3C(F)(F)F)cc2n1 [Compound 354, [2-{[Methyl-(2-methyl-benzyl)-amino]-methyl}-7-(3-trifluoromethyl-pyridin-2-yl)-quinazolin-4-yl]-(6-trifluoromethyl-pyridin-3-yl)-amine]
< 1 µM | – | CN(Cc1nc(Nc2ccc(C(F)(F)F)nc2)c2ccc(-c3ncccc3C(F)(F)F)cc2n1)Cc1ccccc1F [Compound 355, [2-{[(2-Fluoro-benzyl)-methyl-amino]-methyl}-7-(3-trifluoromethyl-pyridin-2-yl)-quinazolin-4-yl]-(6-trifluoromethyl-pyridin-3-yl)-amine]
< 1 µM | – | CN(CCc1ccccc1)Cc1nc(Nc2ccc(C(F)(F)F)nc2)c2ccc(-c3ncccc3C(F)(F)F)cc2n1 [Compound 357, [2-[(Methyl-phenethyl-amino)-methyl]-7-(3-trifluoromethyl-pyridin-2-yl)-quinazolin-4-yl]-(6-trifluoromethyl-pyridin-3-yl)-amine]
< 1 µM | – | FC(F)(F)c1ccc(Nc2nc(CN3CCCC3)nc3cc(-c4ncccc4C(F)(F)F)ccc23)cn1 [Compound 358, [2-Pyrrolidin-1-ylmethyl-7-(3-trifluoromethyl-pyridin-2-yl)-quinazolin-4-yl]-(6-trifluoromethyl-pyridin-3-yl)-amine]
< 1 µM | – | FC(F)(F)c1ccc(Nc2nc(CN3CCCCC3)nc3cc(-c4ncccc4C(F)(F)F)ccc23)cn1 [Compound 359, [2-Piperidin-1-ylmethyl-7-(3-trifluoromethyl-pyridin-2-yl)-quinazolin-4-yl]-(6-trifluoromethyl-pyridin-3-yl)-amine]
< 1 µM | – | CC1CCN(Cc2nc(Nc3ccc(C(F)(F)F)nc3)c3ccc(-c4ncccc4C(F)(F)F)cc3n2)CC1 [Compound 360, [2-(4-Methyl-piperidin-1-ylmethyl)-7-(3-trifluoromethyl-pyridin-2-yl)-quinazolin-4-yl]-(6-trifluoromethyl-pyridin-3-yl)-amine]
< 1 µM | – | FC(F)(F)c1ccc(Nc2nc(CN3CCCCCC3)nc3cc(-c4ncccc4C(F)(F)F)ccc23)cn1 [Compound 361, [2-Azepan-1-ylmethyl-7-(3-trifluoromethyl-pyridin-2-yl)-quinazolin-4-yl]-(6-trifluoromethyl-pyridin-3-yl)-amine]
< 1 µM | – | FC(F)(F)c1ccc(Nc2nc(CN3CCCCCCC3)nc3cc(-c4ncccc4C(F)(F)F)ccc23)cn1 [Compound 362, [2-Azocan-1-ylmethyl-7-(3-trifluoromethyl-pyridin-2-yl)-quinazolin-4-yl]-(6-trifluoromethyl-pyridin-3-yl)-amine]

Further lines, the compound ahead of its results:

Structure (SMILES) | Ki | Ki (Table III, [3H]RTX competition binding, capsaicin receptor)
COCCN(CCOC)Cc1nc(Nc2ccc(C(F)(F)F)cc2)c2ccc(-c3ncccc3C(F)(F)F)cc2n1 [Compound 344, [2-{[Bis-(2-methoxy-ethyl)-amino]-methyl}-7-(3-trifluoromethyl-pyridin-2-yl)-quinazolin-4-yl]-(4-trifluoromethyl-phenyl)-amine] | < 1 µM | –
CCCCCN(CCCCC)Cc1nc(Nc2ccc(C(F)(F)F)cc2)c2ccc(-c3ncccc3C(F)(F)F)cc2n1 [Compound 345, [2-Dipentylaminomethyl-7-(3-trifluoromethyl-pyridin-2-yl)-quinazolin-4-yl]-(4-trifluoromethyl-phenyl)-amine] | < 1 µM | –
CCCCCCN(CCCCCC)Cc1nc(Nc2ccc(C(F)(F)F)cc2)c2ccc(-c3ncccc3C(F)(F)F)cc2n1 [Compound 346, [2-Dihexylaminomethyl-7-(3-trifluoromethyl-pyridin-2-yl)-quinazolin-4-yl]-(4-trifluoromethyl-phenyl)-amine] | < 1 µM | –
CC1CC(C)CN(Cc2nc(Nc3ccc(C(F)(F)F)cc3)c3ccc(-c4ncccc4C(F)(F)F)cc3n2)C1 (stereo not shown) [Compound 347, [2-(3,5-Dimethyl-piperidin-1-ylmethyl)-7-(3-trifluoromethyl-pyridin-2-yl)-quinazolin-4-yl]-(4-trifluoromethyl-phenyl)-amine] | – | < 1 µM
CCC(c1ccccc1)N(C)Cc1nc(Nc2ccc(C(F)(F)F)nc2)c2ccc(-c3ncccc3C(F)(F)F)cc2n1 (stereo not shown) [Compound 350, [2-{[Methyl-1-(1-phenyl-propyl)-amino]-methyl}-7-(3-trifluoromethyl-pyridin-2-yl)-quinazolin-4-yl]-(6-trifluoromethyl-pyridin-3-yl)-amine] | < 1 µM | –
CN(Cc1cccc(F)c1)Cc1nc(Nc2ccc(C(F)(F)F)nc2)c2ccc(-c3ncccc3C(F)(F)F)cc2n1 [Compound 353] | < 1 µM | –
CC1CCN(Cc2nc(Nc3ccc(C(F)(F)F)nc3)c3ccc(-c4ncccc4C(F)(F)F)cc3n2)CC(C)(C)C1 (stereo not shown) [Compound 363, (6-Trifluoromethyl-pyridin-3-yl)-[7-(3-trifluoromethyl-pyridin-2-yl)-2-(3,3,5-trimethyl-azepan-1-ylmethyl)-quinazolin-4-yl]-amine] | < 1 µM | –
FC(F)(F)c1ccc(Nc2nc(CN3CCC4(CC3)OCCO4)nc3cc(-c4ncccc4C(F)(F)F)ccc23)cn1 [Compound 364, [2-(1,4-Dioxa-8-aza-spiro[4.5]dec-8-ylmethyl)-7-(3-trifluoromethyl-pyridin-2-yl)-quinazolin-4-yl]-(6-trifluoromethyl-pyridin-3-yl)-amine] | < 1 µM | –
FC(F)(F)c1ccc(Nc2nc(CN3CCCC4CCCCC43)nc3cc(-c4ncccc4C(F)(F)F)ccc23)cn1 (stereo not shown) [Compound 365, [2-(Octahydro-quinolin-1-ylmethyl)-7-(3-trifluoromethyl-pyridin-2-yl)-quinazolin-4-yl]-(6-trifluoromethyl-pyridin-3-yl)-amine] | < 1 µM | –
CN(C)Cc1nc(Nc2ccc(C(F)(F)F)nc2)c2ccc(-c3ncccc3C(F)(F)F)cc2n1 [Compound 366, [2-Dimethylaminomethyl-7-(3-trifluoromethyl-pyridin-2-yl)-quinazolin-4-yl]-(6-trifluoromethyl-pyridin-3-yl)-amine] | < 1 µM | –
C=CCN(C)Cc1nc(Nc2ccc(C(F)(F)F)nc2)c2ccc(-c3ncccc3C(F)(F)F)cc2n1 [Compound 367, [2-[(Allyl-methyl-amino)-methyl]-7-(3-trifluoromethyl-pyridin-2-yl)-quinazolin-4-yl]-(6-trifluoromethyl-pyridin-3-yl)-amine] | < 1 µM | –
CCN(CC)Cc1nc(Nc2ccc(C(F)(F)F)nc2)c2ccc(-c3ncccc3C(F)(F)F)cc2n1 [Compound 368, [2-Diethylaminomethyl-7-(3-trifluoromethyl-pyridin-2-yl)-quinazolin-4-yl]-(6-trifluoromethyl-pyridin-3-yl)-amine] | < 1 µM | –
CCCN(C)Cc1nc(Nc2ccc(C(F)(F)F)nc2)c2ccc(-c3ncccc3C(F)(F)F)cc2n1 [Compound 369, [2-[(Methyl-propyl-amino)-methyl]-7-(3-trifluoromethyl-pyridin-2-yl)-quinazolin-4-yl]-(6-trifluoromethyl-pyridin-3-yl)-amine] | < 1 µM | –
CCCCN(C)Cc1nc(Nc2ccc(C(F)(F)F)nc2)c2ccc(-c3ncccc3C(F)(F)F)cc2n1 [Compound 370, [2-[(Butyl-methyl-amino)-methyl]-7-(3-trifluoromethyl-pyridin-2-yl)-quinazolin-4-yl]-(6-trifluoromethyl-pyridin-3-yl)-amine] | < 1 µM | –
CCN(Cc1nc(Nc2ccc(C(F)(F)F)nc2)c2ccc(-c3ncccc3C(F)(F)F)cc2n1)C(C)C [Compound 371, [2-[(Ethyl-isopropyl-amino)-methyl]-7-(3-trifluoromethyl-pyridin-2-yl)-quinazolin-4-yl]-(6-trifluoromethyl-pyridin-3-yl)-amine] | < 1 µM | –
C=CCN(CC=C)Cc1nc(Nc2ccc(C(F)(F)F)nc2)c2ccc(-c3ncccc3C(F)(F)F)cc2n1 [Compound 372, [2-Diallylaminomethyl-7-(3-trifluoromethyl-pyridin-2-yl)-quinazolin-4-yl]-(6-trifluoromethyl-pyridin-3-yl)-amine] | < 1 µM | –
CCCN(CCC)Cc1nc(Nc2ccc(C(F)(F)F)nc2)c2ccc(-c3ncccc3C(F)(F)F)cc2n1 [Compound 373, [2-Dipropylaminomethyl-7-(3-trifluoromethyl-pyridin-2-yl)-quinazolin-4-yl]-(6-trifluoromethyl-pyridin-3-yl)-amine] | < 1 µM | –
CCCCN(CC)Cc1nc(Nc2ccc(C(F)(F)F)nc2)c2ccc(-c3ncccc3C(F)(F)F)cc2n1 [Compound 374, [2-[(Butyl-ethyl-amino)-methyl]-7-(3-trifluoromethyl-pyridin-2-yl)-quinazolin-4-yl]-(6-trifluoromethyl-pyridin-3-yl)-amine] | < 1 µM | –
CCCN(Cc1nc(Nc2ccc(C(F)(F)F)nc2)c2ccc(-c3ncccc3C(F)(F)F)cc2n1)CC1CC1 [Compound 375, [2-[(Cyclopropylmethyl-propyl-amino)-methyl]-7-(3-trifluoromethyl-pyridin-2-yl)-quinazolin-4-yl]-(6-trifluoromethyl-pyridin-3-yl)-amine] | < 1 µM | –
